Data published in patent publication US20100144779A1, “Marine Alkalod Makaluvamines and Derivatives Thereof” (THE UAB RESEARCH FOUNDATION, priority 2007, published 2010).

Assays:
Format in all cases: cell-based, human
SK-MEL-28 = experiment: NCI60 cell line screen (SRB); conditions: SK-MEL-28, Melanoma, 48 h
Experimental: (§1) This panel implements the NCI60 cell line screen, including leukemia, non-small cell lung cancer, colon cancer, central nervous system cancer, melanoma, ovarian cancer, renal cancer, prostate cancer and breast cancer. The cell lines tested are specified in Table 3.
(§2) Generally, the human tumor cell lines of the cancer screening panel are grown in RPMI 1640 medium containing 5% fetal bovine serum and 2 mM L-glutamine. For a typical screening experiment, cells are inoculated into 96 well microtiter plates in 100 μL at plating densities ranging from 5,000 to 40,000 cells/well depending on the doubling time of individual cell lines. After cell inoculation, the microtiter plates are incubated at 37° C., 5% CO2, 95% air and 100% relative humidity for 24 h prior to addition of experimental drugs. After 24 h, two plates of each cell line are fixed in situ with TCA, to represent a measurement of the cell population for each cell line at the time of drug addition (Tz). Experimental drugs are solubilized in dimethyl sulfoxide at 400-fold the desired final maximum test concentration and stored frozen prior to use. At the time of drug addition, an aliquot of frozen concentrate is thawed and diluted to twice the desired final maximum test concentration with complete medium containing 50 μg/ml gentamicin. Additional four, 10-fold or ½ log serial dilutions are made to provide a total of five drug concentrations plus control. Aliquots of 100 μl of these different drug dilutions are added to the appropriate microtiter wells already containing 100 μl of medium, resulting in the required final drug concentrations.
(§3) Following drug addition, the plates are incubated for an additional 48 h at 37° C., 5% CO2, 95% air, and 100% relative humidity. For adherent cells, the assay is terminated by the addition of cold TCA. Cells are fixed in situ by the gentle addition of 50 μl of cold 50% (w/v) TCA (final concentration, 10% TCA) and incubated for 60 minutes at 4° C. The supernatant is discarded, and the plates are washed five times with tap water and air dried. Sulforhodamine B (SRB) solution (100 μl) at 0.4% (w/v) in 1% acetic acid is added to each well, and plates are incubated for 10 minutes at room temperature. After staining, unbound dye is removed by washing five times with 1% acetic acid and the plates are air dried. Bound stain is subsequently solubilized with 10 mM trizma base, and the absorbance is read on an automated plate reader at a wavelength of 515 nm. For suspension cells, the methodology is the same except that the assay is terminated by fixing settled cells at the bottom of the wells by gently adding 50 μl of 80% TCA (final concentration, 16% TCA). Using the seven absorbance measurements (time zero, Tz, control growth, (control), and test growth in the presence of drug at the five concentration levels (Ti)), the percentage growth is calculated at each of the drug concentrations levels. Percentage growth inhibition is calculated as:
(§4) [(Ti−Tz)/(C−Tz)]×100 for concentrations for which Ti>/=Tz
(§5) [(Ti−Tz)/Tz]×100 for concentrations for which Ti<Tz.

CCRF-CEM = experiment: NCI60 cell line screen (SRB); conditions: Leukemia, 48 h
Experimental: as §1, §2, §3, §4, §5

MCF-7 [1] = experiment: NCI60 cell line screen (SRB); conditions: MCF-7, Breast Cancer, 48 h
Experimental: as §1, §2, §3, §4, §5

SNB-19 = experiment: NCI60 cell line screen (SRB); conditions: SNB-19, CNS Cancer, 48 h
Experimental: as §1, §2, §3, §4, §5

SF-295 = experiment: NCI60 cell line screen (SRB); conditions: SF-295, CNS Cancer, 48 h
Experimental: as §1, §2, §3, §4, §5

MALME-3M = experiment: NCI60 cell line screen (SRB); conditions: Melanoma, 48 h
Experimental: as §1, §2, §3, §4, §5

OVCAR4 = experiment: NCI60 cell line screen (SRB); conditions: OVCAR4, Ovarian Cancer, 48 h
Experimental: as §1, §2, §3, §4, §5

A549/ATCC = experiment: NCI60 cell line screen (SRB); conditions: Non-Small Cell Lung Cancer, 48 h
Experimental: as §1, §2, §3, §4, §5

MDA-MB-435 = experiment: NCI60 cell line screen (SRB); conditions: MDA-MB-435, Breast Cancer, 48 h
Experimental: as §1, §2, §3, §4, §5

SN12C = experiment: NCI60 cell line screen (SRB); conditions: Renal Cancer, 48 h
Experimental: as §1, §2, §3, §4, §5

KM12 = experiment: NCI60 cell line screen (SRB); conditions: KM12, Colon Cancer, 48 h
Experimental: as §1, §2, §3, §4, §5

HOP-62 = experiment: NCI60 cell line screen (SRB); conditions: HOP-62, Non-Small Cell Lung Cancer, 48 h
Experimental: as §1, §2, §3, §4, §5

OVCAR5 = experiment: NCI60 cell line screen (SRB); conditions: OVCAR5, Ovarian Cancer, 48 h
Experimental: as §1, §2, §3, §4, §5

MDA-MB-231/ATCC = experiment: NCI60 cell line screen (SRB); conditions: Breast Cancer, 48 h
Experimental: as §1, §2, §3, §4, §5

UO-31 = experiment: NCI60 cell line screen (SRB); conditions: UO-31, Renal Cancer, 48 h
Experimental: as §1, §2, §3, §4, §5

HS 578T = experiment: NCI60 cell line screen (SRB); conditions: Breast Cancer, 48 h
Experimental: as §1, §2, §3, §4, §5

NCIH332M = experiment: NCI60 cell line screen (SRB); conditions: Non-Small Cell Lung Cancer, 48 h
Experimental: as §1, §2, §3, §4, §5

MDA-MB-468 = experiment: XTT cytotoxicity assay; conditions: average ± standard deviation of 2-4 independent assays, read-out: Inhibition of Cancer Cell Proliferation (IC50) MDA-MB-468
Experimental: (§6) In initial experiments, compounds 4a-g and 7c-g were evaluated for their cytotoxicity against human breast cancer cell lines MCF-7 and MDA-MB-468 and human colon cancer cell line HCT-116. The makaluvamine compounds provided in Table 2 were also evaluated for their cytotoxicity against human breast cancer cell lines MCF-7. Compound nos. 8 and 27-33 were not evaluated in this experiment. Cells were obtained from ATCC (Manassas, Va.). For each derivative the IC50 value was determined using data generated from 2-4 independent tetrazolium-based (XTT) cytotoxicity assays (R & D Systems Inc., Minneapolis, Minn.) according to the manufacturer's instructions. […] MCF-7, MDA-MD-468 and HCT-116 cells were grown at 37 degrees C. in a humidified atmosphere with complete growth media supplemented with fetal bovine serum. Growth media was changed 2-3 times per week as required.

MCF-7 [2] = experiment: XTT cytotoxicity assay; conditions: XTT; average ± standard deviation of 2-4 independent assays; read-out: Inhibition of Cancer Cell Proliferation (IC50) MCF-7
Experimental: as §6

HCT-116 = experiment: XTT cytotoxicity assay; conditions: average ± standard deviation of 2-4 independent assays, read-out: Inhibition of Cancer Cell Proliferation (IC50) HCT-116
Experimental: as §6

Structure (SMILES) | GI50 (SK-MEL-28) [nM] | IC50 (MDA-MB-468) [nM] | IC50 (MCF-7 [2]) [nM] | IC50 (HCT-116) [nM] | GI50 (SK-MEL-28; Homo sapiens) [nM] | GI50 (CCRF-CEM; Homo sapiens) [nM] | GI50 (MCF-7 [1]; Homo sapiens, MCF7) [nM] | GI50 (SNB-19; Homo sapiens) [nM] | GI50 (SF-295; Homo sapiens) [nM] | GI50 (MALME-3M; Homo sapiens) [nM] | GI50 (OVCAR4; Homo sapiens, OVCAR-4) [nM] | GI50 (MDA-MB-435; Homo sapiens) [nM] | GI50 (SN12C; Homo sapiens) [nM] | GI50 (KM12; Homo sapiens) [nM] | GI50 (HOP-62; Homo sapiens) [nM] | GI50 (OVCAR5; Homo sapiens, OVCAR-5) [nM] | GI50 (MDA-MB-231/ATCC; Homo sapiens) [nM] | GI50 (UO-31; Homo sapiens) [nM] | GI50 (HS 578T; Homo sapiens) [nM] | GI50 (NCIH332M; Homo sapiens, NCI-H332M) [nM] | also measured
O=C1C(NCc2ccccc2)=CC2=NCCc3c[nH]c1c32 [Compound 4c] | 7420 | 300 | 1000 | 1300 ± 200 |  |  |  |  |  |  |  |  |  |  |  |  |  |  |  |  | GI50 (CCRF-CEM): 900 nM; GI50 (MCF-7 [1]): 61 nM; GI50 (SNB-19): 1960 nM; GI50 (SF-295): 1120 nM; GI50 (MALME-3M): 300 nM; GI50 (OVCAR4): 624 nM; GI50 (A549/ATCC): 2140 nM; GI50 (MDA-MB-435): 2030 nM; GI50 (SN12C): 1890 nM; GI50 (KM12): 2060 nM; GI50 (HOP-62): 3700 nM; GI50 (OVCAR5): 2670 nM; GI50 (MDA-MB-231/ATCC): 439 nM; GI50 (UO-31): 2630 nM; GI50 (HS 578T): 5200 nM; GI50 (NCIH332M): 628 nM
O=C(O)C(F)(F)F.O=C1C(NCCc2ccc3c(c2)OCO3)=CC2=NCCc3c[nH]c1c32 [Compound 6] |  |  |  |  | 4910 | 2970 | 1210 | 3290 | 1870 | 343 | 971 | 1890 | 2690 | 2290 | 2500 | 2720 | 2320 | 5840 | 2860 | 2820 | 
O=C1C(NCCc2ccccc2)=CC2=NCCc3c[nH]c1c32 [Compound 4d] |  | 300 | 1700 ± 500 | 3900 ± 1200 |  |  |  |  |  |  |  |  |  |  |  |  |  |  |  |  | 
COc1ccc(CCNC2=CC3=NCCc4c[nH]c(c43)C2=O)cc1OC.O=C(O)C(F)(F)F [Compound 20] |  |  |  |  | 10100 | 10600 | 2610 | 3260 | 1840 | 249 | 1160 | 2050 | 3070 | 2230 | 5170 | 5140 | 3210 | 7110 | 5040 | 2840 | GI50 (A549/ATCC; Homo sapiens): 2720 nM
CNC1=CC2=NCCc3c[nH]c(c32)C1=O [Compound 4a] | 6620 | 400 ± 50 | 1300 ± 100 | 2500 ± 1300 |  |  |  |  |  |  |  |  |  |  |  |  |  |  |  |  | GI50 (CCRF-CEM): 2970 nM; GI50 (MCF-7 [1]): 1520 nM; GI50 (SNB-19): 3430 nM; GI50 (SF-295): 1210 nM; GI50 (MALME-3M): 1210 nM; GI50 (OVCAR4): 1080 nM; GI50 (A549/ATCC): 2780 nM; GI50 (MDA-MB-435): 1800 nM; GI50 (SN12C): 3060 nM; GI50 (KM12): 3830 nM; GI50 (HOP-62): 1280 nM; GI50 (OVCAR5): 17300 nM; GI50 (MDA-MB-231/ATCC): 3130 nM; GI50 (UO-31): 14600 nM; GI50 (HS 578T): 10200 nM; GI50 (NCIH332M): 2890 nM
O=C(O)C(F)(F)F.O=C1C(NCc2ccc(F)cc2)=CC2=NCCc3c[nH]c1c32 [Compound 28] |  |  |  |  | 5780 | 1430 | 160 | 1790 | 1060 | 208 | 1090 | 1750 | 1950 | 2020 | 3790 | 2370 | 725 | 2590 | 44000 | 1170 | GI50 (A549/ATCC; Homo sapiens): 1440 nM
